Reference: patent US20230192683A1, “FUSED RING COMPOUNDS, PREPARATION METHOD THEREFOR, PHARMACEUTICAL COMPOSITIONS AND USE THEREOF” (priority 2020, published 2023)
Structures can show the parent of a compound that is named as a salt. Marks after values point to notes of the source that are not given here.

Tests used:
[1] = biological target: T1, human SSTR4 (Homo sapiens, UniProt P31391); assay: cell-based human SSTR4 cAMP assay (agonist activity); conditions: SSTR4, EC50 (nM), Flp-In-CHO-SSTR4 stable pool, Forskolin-stimulated cAMP
T1 construct: expressed in transfected cells
T1 sequence (P31391 whole entry): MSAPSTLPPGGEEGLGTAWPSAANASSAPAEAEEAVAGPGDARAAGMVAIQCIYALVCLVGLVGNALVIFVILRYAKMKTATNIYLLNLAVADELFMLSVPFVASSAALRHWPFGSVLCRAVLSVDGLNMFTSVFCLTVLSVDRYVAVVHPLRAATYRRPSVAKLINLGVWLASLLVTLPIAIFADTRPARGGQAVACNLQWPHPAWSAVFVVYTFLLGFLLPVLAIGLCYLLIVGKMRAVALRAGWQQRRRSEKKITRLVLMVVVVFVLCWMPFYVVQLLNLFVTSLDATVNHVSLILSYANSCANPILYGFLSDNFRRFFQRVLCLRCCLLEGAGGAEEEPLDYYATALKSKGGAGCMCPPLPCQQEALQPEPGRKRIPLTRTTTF
Protocol: Purpose of test: A cell-based human SSTR4 cAMP assay was used to determine the agonistic effect of the test compound on an SSTR 4 receptor.
Cell culture and reagent preparation: cell line: Flp-In-CHO-SSTR4 stable pool; complete medium: Ham’s F-12 K + 10% FBS + 1 × penicillin-streptomycin (PS) + 600 µg/ml hygromycin B; cell seeding medium: Ham’s F-12K + 10% FBS; assay buffer: 1 × HBSS + 20 mM HEPES + 0.1%BSA + 500 uM IBMX.
The Flp-In-CHO-SSTR 4 stable pool cell line was cultured in a complete medium at 37° C., 5% CO2 until a confluency of 70% to 90%.
After TrypLE digestion, the cells were resuspended in the seeding medium and seeded in a 384-well cell culture plate (384 PE culture plate), with 7,000 cells per well, and were cultured overnight at 37° C., 5% CO2.
The cell culture plate was taken out, inverted at 200 g at room temperature for 5 s to remove the medium, then quickly filled with 15 µl of an experimental buffer to each experimental well, and centrifuged at 200 g at room temperature for 5 s.
2.5 µl of the 8x compound working solution diluted in step 3 was added to corresponding test wells, which were centrifuged at 200 g for 5 s at room temperature, and incubated at 37° C. for 10 min.
A 4 uM Forskolin working solution (8x) was prepared.
The cell plate was taken out and equilibrated to room temperature, then filled with 2.5 µl of the 8x Forskolin working solution prepared in step 6 to corresponding test wells, followed by RT at 200 g for 5 s, and left to stand at 37° C. for 30 min.
A Eu-cAMP tracer and Uliaght-anti-cAMP were freeze-thawed, the Eu-cAMP tracer was diluted 50-fold with a detection buffer, and the Uliaght-anti-cAMP was dilutd 150-fold.
10 µl of the Eu-cAMP tracer was added to all experimental wells, then 10 µl of the detection buffer was added to NC wells, and 10 µl of the Uliaght-anti-cAMP was added to the remaining experimental wells.
The reaction plate was centrifuged at 200 g for 30 s at room temperature, and after standing at 25° C. for 1 h, data was collected using Envision.
Compound EC50 was calculated using a GraphPad nonlinear fitting formula: […]
X: Compound concentration log value; Y: HTRF ratio

[2] = metabolic stability in male rat liver microsomes; conditions: pH 7.4
Protocol: (§1) Metabolic degradation of a test compound was analyzed using pooled human liver microsomes and male rat liver microsomes, respectively, at 37° C.
(§2) After pre-incubation at 37° C. for 5 min, NADPH (5 mM, 60 µL) was added to initiate a reaction. A fixed volume of the reaction mixture (30 µL) was sampled into the solution at fixed time points (0, 5, 15, 30, 60 min) to quench the reaction. After centrifugation (4000 rpm, 15 min), the supernatant (100 µL) was mixed with distilled water (100 µL) and then subjected to LC-MS/MS analysis to test the amount of the compound. A half-life was calculated using a first-order reaction kinetic equation (Ct = C0 × e^-ket, T½ = Ln2/ke).

[3] = metabolic stability in pooled human liver microsomes; conditions: pH 7.4
Protocol: as §1, §2

[4] = test system: rat CFA pain model; assay: single-dose pharmacodynamic study in rat CFA pain model (Von Frey PWT); format: in vivo
Protocol: Each male SD rat (7-8 weeks old) was injected with 50 microliters of CFA in the center of the left hind paw. A PWT basal value test was conducted 24 hours after modeling, and the drugs were administered after randomization.
There were 8 animals in each group, and the animals were weighed and administered according to Table 4.
For all groups of animals, paw withdrawal thresholds (PWTs) of the animals were tested using Von Frey after 1 h and 3 h of single administration.

[5] = test system: rat CFA pain model; assay: multi-dose oral pharmacodynamic study in rat CFA pain model (Von Frey PWT); format: in vivo
Protocol: The efficacy of Compound 1a and Compound 14 in the rat CFA pain model was evaluated using a mechanical allodynia method.
SD rats, 72 males, divided into 9 groups, were purchased from Beijing Vital River Laboratory Animal Technology Co., Ltd.
The experimental animals were adaptively reared for 3 to 7 days, and 8 of them were selected as a normal control group, and the other animals were injected with 50 µL of CFA in the center of the left hind paw for modeling. 24 hours after injection, the animals were tested for paw withdrawal threshold (PWT) basal values, and were divided into groups according to the basal values, which were solvent control group, indomethacin group, Compound 1a, 10 mpk group, Compound 1a, 30 mpk group, Compound 1a, 100 mpk group, Compound 14, 3 mpk group, Compound 14, 10 mpk group, and Compound 14, 30 mpk group, with 8 animals in each group. Subsequently, the animals were weighed and administered orally according to Table 6. All the animals were tested for paw withdrawal thresholds (PWT) using Von Frey 1, 2, and 4 hours after administration to further evaluate the efficacy of the compounds of the present invention.

SMILES | EC50 [1] [nM] | other results
CSc1cccn2c(C(C)(C)NC(=O)C3C4CNCC43C)ncc12 (single isomer, unassigned) [Compound 5-P1, 1-Methyl-N-(2-(8-(Methylthio)Imidazo[1,5-a]Pyridin-3-yl)Propan-2-yl)-3-Azabicyclo[3.1.0]Hexane-6-Carboxamide] | 1.25 | 
CSc1cccn2c(C(C)(C)NC(=O)C3C4CNCC43C)ncc12 (single isomer, unassigned) [Compound 5-P2, 1-methyl-N-(2-(8-(methylthio)imidazo[1,5-a]pyridin-3-yl)propan-2-yl)-3-azabicyclo[3.1.0]hexane-6-carboxamide] | 0.41 | 
CSc1cccn2c(C(C)(C)NC(=O)[C@H]3[C@@H]4CNC[C@@H]43)ncc12.Cl [Compound 1, (1R,5S,6R)-N-(2-(8-(Methylthio)Imidazo[1,5-a]Pyridin-3-yl)Prop-2-yl)-3-Azabicyclo[3.1.0]Hexane-6-Carboxamide Hydrochloride] | 0.15 | half-life at 1 µM ([2]; microsomes): > 3.11 h; half-life at 1 µM ([3]; microsomes): > 3.11 h
CC(C)(CSc1ccccc1C(F)(F)F)NC(=O)[C@H]1[C@@H]2CNC[C@@H]21 [Compound 2, (1R,5S,6R)-N-(2-Methyl-1-((2-(Trifluoromethyl)Phenyl)Thio)Prop-2-yl)-3-Azabicyclo[3.1.0]Hexane-6-Carboxamide Formate] | 6.77 | 
CC(C)(NC(=O)[C@H]1[C@@H]2CNC[C@@H]21)c1ncc2c(SC3CCCC3)cccn12 [Compound 3, (1R,SS,6R)-N(2-(8-(Cyclopentylthio)Imidazo[1,5-a]Pyridin-3-yl)Prop-2-yl)-3-Azabicyclo[3.1.0]Hexane-6-Carboxamide] | 10.5 | 
CC(C)(NC(=O)[C@H]1[C@@H]2CNC[C@@H]21)c1ncc2c(Sc3nccs3)cccn12 [Compound 4, (1R,5S,6R)-N-(2-(8-(Thiazol-2-Ylsulfanyl)Imidazo[1,5-a]Pyridin-3-yl)Prop-2-yl)-3-Azabicyclo[3.1.0]Hexane-6-Carboxamide] | 36.7 | 
CCSc1cccn2c(C(C)(C)NC(=O)[C@H]3[C@@H]4CNC[C@@H]43)ncc12 [Compound 6, (1R,5S,6R)-N-(2-(8-(Ethylthio)Imidazo[1,5-a]Pyridin-3-yl)Prop-2-yl)-3-Azabicyclo[3.1.0]Hexane-6-Carboxamide Hydrochloride] | 0.73 | 
CC(C)Sc1cccn2c(C(C)(C)NC(=O)[C@H]3[C@@H]4CNC[C@@H]43)ncc12 [Compound 7, (1R,5S,6R)-N-(2-(8-(Isopropylthio)Imidazo[1,5-a]Pyridin-3-yl)Prop-2-yl)-3-Azabicyclo[3.1.0]Hexane-6-Carboxamide] | 3.29 | 
CC(C)(NC(=O)[C@H]1[C@@H]2CNC[C@@H]21)c1ncc2c(SCC3CC3)cccn12 [Compound 8, (1R,5S,6R)-N-(2-(8-((Cyclopropylmethyl)Thio)Imidazo[1,5-a]Pyridin-3-yl)Propan-2-yl)-3-Azabicyclo[3.1.0]Hexane-6-Carboxamide] | 0.5 | 
CC(C)(NC(=O)[C@H]1[C@@H]2CNC[C@@H]21)c1ncc2c(SCc3ccccc3)cccn12 [Compound 9, (1R,5S,6R)-N-(2-(8-(Benzylthio)Imidazo[1,5-a]Pyridin-3-yl)Prop-2-yl)-3-Azabicyclo[3.1.0]Hexane-6-Carboxamide] | 3.42 | 
CC(C)CSc1cccn2c(C(C)(C)NC(=O)[C@H]3[C@@H]4CNC[C@@H]43)ncc12 [Compound 10, (1R,5S,6R)-N-(2-(8-(Isobutylthio)Imidazo[1,5-a]Pyridin-3-yl)Prop-2-yl)-3-Azabicyclo[3.1.0]Hexane-6-Carboxamide] | 7.89 | 
CC(C)(NC(=O)[C@H]1[C@@H]2CNC[C@@H]21)c1ncc2c(SCC3CCC3)cccn12 [Compound 11, (1R,5S,6R)-N-(2-(8-((Cyclobutylmethyl)Thio)Imidazo[1,5-a]Pyridin-3-yl)Propan-2-yl)-3-Azabicyclo[3.1.0]Hexane-6-Carboxamide] | 2.47 | 
CC(C)(NC(=O)[C@H]1[C@@H]2CNC[C@@H]21)c1ncc2c(SC3CCC3)cccn12 [Compound 12, (1R,5S,6R)-N-(2-(8-(Cyclobutylthio)Imidazo[1,5-a]Pyridin-3-yl)Prop-2-yl)-3-Azabicyclo[3.1.0]Hexane-6-Carboxamide] | 1.83 | 
CC(C)(NC(=O)[C@H]1[C@@H]2CNC[C@@H]21)c1ncc2c(SCC3CCCC3)cccn12 [Compound 13, (1R,5S,6R)-N-(2-(8-((Cyclopentylmethyl)Thio)Imidazo[1,5-a]Pyridin-3-yl)Propan-2-yl)-3-Azabicyclo[3.1.0]Hexane-6-Carboxamide] | 7.58 | 
CSc1cccc2c(C(C)(C)NC(=O)[C@H]3[C@@H]4CNC[C@@H]43)n[nH]c12 [Compound 15, (1R,5S,6R)-N-(2-(7-(Methylthio)-1H-Indazol-3-yl)Propan-2-yl)-3-Azabicyclo[3.1.0]Hexane-6-Carboxamide] | 0.046 | half-life at 1 µM ([2]; rat liver microsomes): > 3.11 h; half-life at 1 µM ([3]; pooled human liver microsomes): > 3.11 h
CSc1ccccc1C(C)(C)NC(=O)[C@H]1[C@@H]2CNC[C@@H]21 [Compound 16, (1R,5S,6R)-N-(2-(2-(Methylthio)Phenyl)Propan-2-yl)-3-Azabicyclo[3.1.0]Hexane-6-Carboxamide] | 1.25 | 
CSc1nc(C(C)(C)NC(=O)[C@H]2[C@@H]3CNC[C@@H]32)n2cccc(C)c12 [Compound 17, (1R,5S,6R)-N-(2-(8-Methyl-1-(Methylthio)Imidazo[1,5-a]Pyridin-3-yl)Propan-2-yl)-3-Azabicyclo[3.1.0]Hexane-6-Carboxamide] | 0.068 | half-life at 1 µM ([2]; rat liver microsomes): > 3.11 h; half-life at 1 µM ([3]; pooled human liver microsomes): > 3.11 h
COc1ccc2c(c1)c(CC(=O)O)c(C)n2C(=O)c1ccc(Cl)cc1 [Indomethacin, reference compound] |  | Mechanical allodynia test (PWT (g), mean) Baseline ([4]; 30 mg/kg P.O. group, baseline 24 h after CFA, before administration): 3.554 g; Mechanical allodynia test (PWT (g), mean) 1 hour ([4]; 30 mg/kg P.O., 1 hour after single administration): 4.448 g; inhibition of CFA-induced mechanical allodynia (in words) ([4]; 30 mg/kg P.O., 3 hours after administration, FIG. 1): significantly inhibit; Mechanical allodynia test (PWT (g), mean) 3 hours ([4]; 30 mg/kg P.O., 3 hours after single administration): 10.360 **** #### g; Paw withdrawal threshold (PWT(g)) (average) 0 hours ([5]; 30 mg/kg oral group, 0 hours): 3.012 g; inhibition of CFA-induced mechanical allodynia (in words) ([5]; 30 mg/kg oral, 2 and 4 hours after administration, FIG. 2): significantly inhibited; Paw withdrawal threshold (PWT(g)) (average) 1 hour ([5]; 30 mg/kg oral, 1 hour): 4.461 g; Paw withdrawal threshold (PWT(g)) (average) 2 hours ([5]; 30 mg/kg oral, 2 hours): 7.486 ** g; Paw withdrawal threshold (PWT(g)) (average) 4 hours ([5]; 30 mg/kg oral, 4 hours): 6.813 ** g
